Assay: Fluorescence of the compound (precondition of the staining test)
Format: physicochemical
Experimental: Four-micrometer thick paraffin sections from an APP23 mouse at 26 months of age are deparaffinized in xylene and rehydrated. 10 mg of the compound are dissolved in 1 mL DMSO and diluted with deionized water 1:10. This staining solution is applied on sections for about 20 min. Section background is cleared by washing with 95% ethanol. Finally sections are dehydrated in 99% ethanol, cleared in xylene and mounted with Vectashield™. Sections are investigated using fluorescence microscopy with the following filter combination: Excitation 450490 nm, emission 510 nm. Twenty micrometer thick cryotom sections from a AD brain cortex are air dried and fixated in 4% PFA for 5 min. After washing in tap water sections are stained either with Thioflavine S or with the compound for 5 min and further processed as described above. The compound is dissolved in DMSO and diluted to a final concentration of 0.01% with 50% Ethanol, Thioflavine S is dissolved in 50% Ethanol, final concentration is 0.01%.

| Fluorescence | Compound |
| --- | --- |
| not fluorescent | CNc1cccc(-c2ccc3nonc3c2)c1 [Example 4, (3Benzo[1,2,5]oxadiazol-5-yl-phenyl)-methyl-amine] |
| not fluorescent | FCCOc1ccc(-c2ccc3nonc3c2)cc1 [Example 5, 5-[4-(2-Fluoro-ethoxy)-phenyl]-benzo[1,2,5]oxadiazole] |
| not fluorescent | O=C(NCCF)c1cncc(-c2ccc3nonc3c2)c1 [Example 11, 5Benzo[1,2,5]oxadiazol-5-yl-N-(2-fluoro-ethyl)-nicotinamide] |
| not fluorescent | O=C(NCCF)c1cnccc1-c1ccc2nonc2c1 [Example 12, 4Benzo[1,2,5]oxadiazol-5-yl-N-(2-fluoro-ethyl)-nicotinamide] |
| not fluorescent | CNc1ccc(-c2ccc3nonc3c2)cc1[N+](=O)[O-] [Example 21, (4Benzo[1,2,5]oxadiazol-5-yl-2-nitro-phenyl)-methyl-amine] |

From US7632851B2, “Benzo[1,2,5]oxadiazoles and benzol[1,2,5]thiadiazoles useful as histopathological staining agents, imaging agents and biomarkers” (Novartis AG, priority 2003, dated 2009)
